Data on 23 compounds can be found in ChEMBL document CHEMBL6092211, “Discovery and evaluation of novel SHIP-1 inhibitors” (Bioorg Med Chem, 2024).

The target of series [1] is T1, Phosphatidylinositol 3,4,5-trisphosphate 5-phosphatase 1 (Homo sapiens, UniProt Q92835).
T1 sequence (Q92835 whole entry): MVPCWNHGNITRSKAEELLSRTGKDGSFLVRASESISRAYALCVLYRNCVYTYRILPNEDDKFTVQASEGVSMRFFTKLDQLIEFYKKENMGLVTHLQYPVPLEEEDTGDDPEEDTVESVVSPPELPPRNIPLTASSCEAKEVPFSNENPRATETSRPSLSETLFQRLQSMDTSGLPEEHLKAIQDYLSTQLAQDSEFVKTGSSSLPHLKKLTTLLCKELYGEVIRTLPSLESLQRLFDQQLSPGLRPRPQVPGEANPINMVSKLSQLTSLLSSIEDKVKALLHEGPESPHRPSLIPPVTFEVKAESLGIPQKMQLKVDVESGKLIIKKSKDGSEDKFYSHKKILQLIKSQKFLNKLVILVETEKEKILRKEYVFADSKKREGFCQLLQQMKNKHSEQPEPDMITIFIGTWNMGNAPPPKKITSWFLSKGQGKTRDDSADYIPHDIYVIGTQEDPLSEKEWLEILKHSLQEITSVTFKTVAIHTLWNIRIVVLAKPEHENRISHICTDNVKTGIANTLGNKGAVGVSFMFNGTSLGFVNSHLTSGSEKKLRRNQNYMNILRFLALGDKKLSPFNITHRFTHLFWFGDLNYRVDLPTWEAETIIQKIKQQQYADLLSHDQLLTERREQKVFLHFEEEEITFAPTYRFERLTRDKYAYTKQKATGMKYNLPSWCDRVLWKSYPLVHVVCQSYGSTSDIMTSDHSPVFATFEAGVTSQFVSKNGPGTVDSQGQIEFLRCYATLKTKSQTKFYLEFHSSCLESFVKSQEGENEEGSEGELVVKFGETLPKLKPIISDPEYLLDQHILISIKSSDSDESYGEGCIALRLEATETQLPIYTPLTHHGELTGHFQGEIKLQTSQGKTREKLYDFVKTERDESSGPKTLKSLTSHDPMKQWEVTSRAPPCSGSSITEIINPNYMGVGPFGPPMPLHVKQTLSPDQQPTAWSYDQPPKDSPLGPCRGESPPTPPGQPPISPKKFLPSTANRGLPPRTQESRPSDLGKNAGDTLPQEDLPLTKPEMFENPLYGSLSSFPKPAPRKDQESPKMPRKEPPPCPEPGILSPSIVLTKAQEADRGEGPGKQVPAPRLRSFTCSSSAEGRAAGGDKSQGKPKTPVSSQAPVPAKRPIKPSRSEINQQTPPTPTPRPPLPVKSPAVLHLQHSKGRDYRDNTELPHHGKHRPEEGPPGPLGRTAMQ
In words: Inhibition of human SHIP-1 (397 to 715 residues) catalytic domain expressed in Rosetta DE3 BL21 cells using 1-(1,2-dioctanoylphosphatidyl) inositol-3,4,5-trisphosphate as substrate by malachite green based spectramax microplate reader analysis.

The target of series [2] is T1, Phosphatidylinositol 3,4,5-trisphosphate 5-phosphatase 1. The experiment in a line: Inhibition of SHIP-1 (unknown origin) using PtdIns(3,4,5)P3 as substrate by malachite green solution based […] analysis.
For series [3] the target is unchanged. The experiment in a line: Inhibition of recombinant SHIP-1 (unknown origin) using PtdIns(3,4,5)P3 as substrate incubated for 30 mins by malachite green solution based analysis.
Series [4] deals with HMC3. The experiment in a line: cells. The note with it: Homo sapiens, HMC3, 48 h.
Series [5] has as its target T1, Phosphatidylinositol 3,4,5-trisphosphate 5-phosphatase 1. In words: Competitive inhibition of human SHIP-1 (397 to 715 residues) catalytic domain expressed in Rosetta DE3 BL21 cells assessed as inhibition constant by Lineweaver-Burk plot analysis. It is filed as cell-based.
Series [6] in a line: Cytotoxicity against human HMC3 cells assessed as cell count incubated for 48 hrs by Hoechst-33342 staining based analysis. It is filed as toxicity.
The test system of series [7] is HMC3. The experiment in a line: cells. The note with it: Homo sapiens, HMC3, 48 h. This is another data set of the same source.
The target in series [8] is T2, Phosphatidylinositol 3,4,5-trisphosphate 5-phosphatase 2 (Homo sapiens, UniProt O15357).
T2 sequence (O15357 whole entry): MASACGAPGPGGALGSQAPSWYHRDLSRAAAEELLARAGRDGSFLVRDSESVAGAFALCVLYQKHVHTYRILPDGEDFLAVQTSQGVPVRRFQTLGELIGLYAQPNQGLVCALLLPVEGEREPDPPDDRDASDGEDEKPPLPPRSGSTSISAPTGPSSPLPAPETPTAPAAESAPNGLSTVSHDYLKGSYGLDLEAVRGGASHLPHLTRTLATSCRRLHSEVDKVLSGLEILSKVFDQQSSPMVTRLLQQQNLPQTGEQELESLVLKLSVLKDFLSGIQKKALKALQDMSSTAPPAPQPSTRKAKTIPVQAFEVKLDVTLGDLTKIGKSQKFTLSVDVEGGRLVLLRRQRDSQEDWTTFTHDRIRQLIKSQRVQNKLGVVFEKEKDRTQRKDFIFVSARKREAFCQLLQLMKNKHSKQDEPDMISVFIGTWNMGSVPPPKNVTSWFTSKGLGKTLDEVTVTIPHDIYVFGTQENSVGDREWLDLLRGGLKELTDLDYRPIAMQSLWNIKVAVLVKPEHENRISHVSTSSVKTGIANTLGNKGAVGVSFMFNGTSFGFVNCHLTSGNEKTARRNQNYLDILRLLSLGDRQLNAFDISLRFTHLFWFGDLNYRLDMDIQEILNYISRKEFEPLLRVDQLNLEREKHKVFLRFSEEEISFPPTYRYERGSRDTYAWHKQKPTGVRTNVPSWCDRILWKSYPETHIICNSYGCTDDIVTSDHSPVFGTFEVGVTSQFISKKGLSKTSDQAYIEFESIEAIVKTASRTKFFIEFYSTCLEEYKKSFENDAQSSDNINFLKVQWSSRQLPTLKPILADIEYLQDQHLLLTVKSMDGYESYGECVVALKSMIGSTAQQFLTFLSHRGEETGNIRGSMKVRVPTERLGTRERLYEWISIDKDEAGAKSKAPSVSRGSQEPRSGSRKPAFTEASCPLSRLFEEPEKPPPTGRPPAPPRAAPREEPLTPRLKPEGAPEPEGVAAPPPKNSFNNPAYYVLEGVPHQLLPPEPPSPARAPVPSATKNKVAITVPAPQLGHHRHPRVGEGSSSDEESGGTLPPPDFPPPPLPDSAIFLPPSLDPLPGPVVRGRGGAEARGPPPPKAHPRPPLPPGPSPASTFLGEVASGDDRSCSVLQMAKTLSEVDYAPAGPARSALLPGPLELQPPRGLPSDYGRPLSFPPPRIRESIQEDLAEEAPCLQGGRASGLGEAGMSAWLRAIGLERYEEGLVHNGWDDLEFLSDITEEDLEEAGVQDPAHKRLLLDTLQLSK
The experiment in a line: Inhibition of recombinant SHIP-2 (unknown origin) using PtdIns(3,4,5)P3 as substrate incubated for 30 mins by malachite green solution based analysis.

For series [9], the target named is T1, Phosphatidylinositol 3,4,5-trisphosphate 5-phosphatase 1. The experiment in a line: Inhibition of SHIP-1 (unknown origin) by malachite green solution based […] analysis.
The target in series [10] is T2, Phosphatidylinositol 3,4,5-trisphosphate 5-phosphatase 2. The experiment in a line: Inhibition of human SHIP-2 (420 to 732 residues) catalytic domain expressed in Rosetta DE3 BL21 cells using -(1,2-dioctanoylphosphatidyflinosito1-3,4,5-trisphosphate as substrate by malachite green based spectramax microplate reader analysis.

The structures appear in SMILES notation. A value given as a limit tells only on which side of the number the result lay.

The compound `Cc1oc(-c2ccccc2Cl)nc1Cn1cccc1C1=NC(c2ccccc2)CO1` (stereo not given) showed an IC50 in series [1] of 46.6 µM.

`N#CC1=C2N=C(N)c3ccccc3N2C2=C(C(=O)CCC2)C1c1cccc(Cl)c1` (stereo not given): in series [1], the IC50 came to 15.4 µM.

Regarding `CC(C)CCC[C@@H](C)[C@H]1CC[C@H]2[C@@H]3CC[C@H]4C[C@H](N)CC[C@]4(C)[C@H]3CC[C@]12C`, in series [2], half-maximal inhibition (IC50) required 13.9 µM.

With `CSc1ccc2c(c1)c(CCN)c(C)n2Cc1ccccc1Cl`, the half-maximal inhibitory concentration (IC50) in [3] is 500 µM.

In the case of `N#CC1=C2N=C(N)c3ccccc3N2C2=C(C(=O)CCC2)C1c1cccnc1` (stereo not given), the IC50 in [1] was 65.5 µM.

Regarding `N#CC1=C2N=C(N)c3ccccc3N2C2=C(C(=O)CCC2)C1c1ccc(-c2ccccc2)cc1` (stereo not given), the EC50 in the series on HMC3 [4] is 20 µM; with HMC3 [7], 2 µM. Inhibition in [1] was half-maximal at 6.1 µM (IC50). The Ki in series [5] stood at 3.2 µM. Also, in [6], the IC50 at 48 h was 19.9 µM.

In series [1], `N#CC1=C2N=C(N)c3ccccc3N2C2=C(C(=O)CCC2)C1c1cc2ccccc2s1` (stereo not given) came in with an IC50 of 40.2 µM.

On to `CC1(C)CC(=O)C2=C(C1)N1C(=C(C#N)C2c2ccc(-c3ccccc3)cc2)N=C(N)c2ccccc21` (stereo not given), for which, in [1], it took 17.7 µM to reach half-maximal inhibition (IC50).

For the compound `O[C@H](c1cc(-c2ccccc2)nc2c1ccc1ccccc12)[C@@H]1CCCCN1`, the IC50 in [3] and in series [8] was 30 µM in each case.

Turning to `C[C@@]12CCC[C@H]1[C@@H]1CC[C@H]3C[C@H](N)[C@H](N)C[C@]3(C)[C@H]1CC2`, inhibition in [9] was half-maximal at 6 µM (IC50).

With `N#CC1=C2N=C(N)c3ccccc3N2C2=C(C(=O)CCC2)C1c1nc2ccccc2s1` (stereo not given), the concentration for half-maximal inhibition (IC50) in series [1] is > 40 µM.

The compound `N#CC1=C2N=C(N)c3ccccc3N2C2=C(C(=O)CCC2)C1c1ccc(Cl)cc1Cl` (stereo not given) gave an IC50 in [1] of 39 µM.

Consider `N#CC1=C2N=C(N)c3ccccc3N2C2=C(C(=O)CC(c3cccs3)C2)C1c1cccnc1` (stereo not given), for which the IC50 in series [1] was 86.8 µM; in series [10], > 200 µM.

On to `N#CC1=C2N=C(N)c3ccccc3N2C2=C(C(=O)CCC2)C1c1ccc(F)c(F)c1` (stereo not given), for which the IC50 in series [1] was > 40 µM.

In the case of `N#CC1=C2N=C(N)c3ccccc3N2C2=C(C(=O)CCC2)C1c1cc2ccccc2o1` (stereo not given), half-maximal inhibition in series [1] (IC50) was put at 28.2 µM.

Regarding `N#CC1=C2N=C(N)c3ccccc3N2C2=C(C(=O)CCC2)C1c1cccc([N+](=O)[O-])c1` (stereo not given), the IC50 in series [1] came to 36.7 µM.

On to `O[C@H](c1cc(C23CC4CC(CC(C4)C2)C3)nc2c(Cl)cc(Cl)cc12)[C@@H]1CCCCN1`, for which the values for the IC50 in series [3] and in [8] were 63 µM and 35 µM, respectively.

In series [1], `CC(C)c1ccc(C2C(C#N)=C3N=C(O)c4ccccc4N3C3=C2C(=O)CCC3)cc1` (stereo not given) yielded an IC50 of 33.6 µM.

In the case of `CC(C)c1ccc(C2C(C#N)=C3N=C(N)c4ccccc4N3C3=C2C(=O)CC(C)(C)C3)cc1` (stereo not given), the IC50 in series [1] was determined as 10.2 µM.

For `C[C@@]12CCC[C@H]1[C@@H]1CC[C@H]3C[C@H](N)CC[C@]3(C)[C@H]1CC2`, the IC50 in series [9] is 16 µM.

In [1], `CC(=O)C1=C(C)Nc2sc(C(=O)c3ccc(Cl)c(Cl)c3)c(N)c2C1c1cccnc1` (stereo not given) came in with an IC50 of 46.7 µM.

As for `N#CC1=C2N=C(N)c3ccccc3N2C2=C(C(=O)CCC2)C1c1cc(Br)ccc1F` (stereo not given), the IC50 in series [1] is 23.4 µM.

As for `CC(C)c1ccc(C2C(C#N)=C3N=C(N)c4ccccc4N3C3=C2C(=O)CCC3)cc1` (stereo not given), the IC50 in series [1] is 13.2 µM.
